What was measured:
Assay in all cases: relative viability (nuclei count vs DMSO), 5 days (fraction); higher = more cells survive
[1] = compound: C1CN(CCC1C(C2=CC3=C(C=C2)OCO3)(C4=CC5=C(C=C4)OCO5)O)C(=O)OC6=CC=C(C=C6)[N+](=O)[O-] [JZL-184] + O=C(CCCCCCC(=O)Nc1ccccc1)NO [Vorinostat] (partner 1 µM)
Summary of the method: (§1)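 Values are medians from duplicate plates. Each reflects relative viability, defined as the nuclei count of treated wells over that of vehicle wells. Lung cancer cell lines in 1536-well plates were pin-tool dosed one day after seeding with one drug alone or with a fixed anchor-drug dose plus five library-drug doses (not always all listed) in √10 steps, then fixed, stained and imaged at 4× after 5 days.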

[2] = compound: C1CN(CCC1C(C2=CC3=C(C=C2)OCO3)(C4=CC5=C(C=C4)OCO5)O)C(=O)OC6=CC=C(C=C6)[N+](=O)[O-] [JZL-184] + O=C(c1cc(Cc2n[nH]c(=O)c3ccccc23)ccc1F)N1CCN(C(=O)C2CC2)CC1 [Olaparib] (partner 8 µM)
Summary of the method: as §1

[3] = compound: C1CN(CCC1C(C2=CC3=C(C=C2)OCO3)(C4=CC5=C(C=C4)OCO5)O)C(=O)OC6=CC=C(C=C6)[N+](=O)[O-] [JZL-184] + Nc1nc2[nH]cc(CCc3ccc(C(=O)N[C@@H](CCC(=O)O)C(=O)O)cc3)c2c(=O)[nH]1 [Pemetrexed] (partner 0.2 µM)
Summary of the method: as §1

[4] = compound: C1CN(CCC1C(C2=CC3=C(C=C2)OCO3)(C4=CC5=C(C=C4)OCO5)O)C(=O)OC6=CC=C(C=C6)[N+](=O)[O-] [JZL-184] + Nc1ncn([C@H]2C[C@H](O)[C@@H](CO)O2)c(=O)n1 [Decitabine] (partner 2 µM)
Summary of the method: as §1

[5] = compound: C1CN(CCC1C(C2=CC3=C(C=C2)OCO3)(C4=CC5=C(C=C4)OCO5)O)C(=O)OC6=CC=C(C=C6)[N+](=O)[O-] [JZL-184] + Cc1nc(NC(=O)N2CCC[C@H]2C(N)=O)sc1-c1ccnc(C(C)(C)C(F)(F)F)c1 [Alpelisib] (partner 2 µM)
Summary of the method: as §1

With EMC-BAC-2 the relative viability ([1]; first compound 0.04 µM) was 0.522, the relative viability ([1]; first compound 0.4 µM) was 0.451 and the relative viability ([1]; first compound 1.265 µM) was 0.761. It also gave a relative viability ([1]; first compound 4 µM) of 0.371, a relative viability ([2]; first compound 0.04 µM) of 0.473 and a relative viability ([2]; first compound 0.4 µM) of 0.479. It also gave a relative viability ([2]; first compound 1.265 µM) of 0.491, a relative viability ([2]; first compound 4 µM) of 0.492 and a relative viability ([3]; first compound 0.04 µM) of 0.452. For the same cell line, the relative viability ([3]; first compound 0.4 µM) was 0.423, the relative viability ([3]; first compound 1.265 µM) was 0.454 and the relative viability ([3]; first compound 4 µM) was 0.473. It also gave a relative viability ([4]; first compound 0.04 µM) of 1.02, a relative viability ([4]; first compound 0.4 µM) of 0.946 and a relative viability ([4]; first compound 1.265 µM) of 0.958. The relative viability ([4]; first compound 4 µM) was 0.944, the relative viability ([5]; first compound 0.04 µM) was 0.794 and the relative viability ([5]; first compound 0.4 µM) was 0.733. For the same cell line, the relative viability ([5]; first compound 1.265 µM) was 0.776 and the relative viability ([5]; first compound 4 µM) was 0.729.
In the case of LU99A, the relative viability ([1]; first compound 0.04 µM) is reported as 0.567, the relative viability ([1]; first compound 0.4 µM) is reported as 0.377 and the relative viability ([1]; first compound 1.265 µM) is reported as 0.66. For the same cell line, the relative viability ([1]; first compound 4 µM) was 0.548, the relative viability ([2]; first compound 0.04 µM) was 0.256 and the relative viability ([2]; first compound 0.4 µM) was 0.277. The relative viability ([2]; first compound 1.265 µM) was 0.254, the relative viability ([2]; first compound 4 µM) was 0.225 and the relative viability ([3]; first compound 0.04 µM) was 0.162. For the same cell line, the relative viability ([3]; first compound 0.4 µM) was 0.12, the relative viability ([3]; first compound 1.265 µM) was 0.159 and the relative viability ([3]; first compound 4 µM) was 0.124. It also gave a relative viability ([4]; first compound 0.04 µM) of 1, a relative viability ([4]; first compound 0.4 µM) of 0.902 and a relative viability ([4]; first compound 1.265 µM) of 1.01. The relative viability ([4]; first compound 4 µM) was 0.843, the relative viability ([5]; first compound 0.04 µM) was 0.587 and the relative viability ([5]; first compound 0.4 µM) was 0.535. It also gave a relative viability ([5]; first compound 1.265 µM) of 0.538 and a relative viability ([5]; first compound 4 µM) of 0.486.
Cell Line PC-3 [JPC-3] has a relative viability ([1]; first compound 0.04 µM) of 0.873, a relative viability ([1]; first compound 0.4 µM) of 0.761 and a relative viability ([1]; first compound 1.265 µM) of 1.14. It also gave a relative viability ([1]; first compound 4 µM) of 0.736, a relative viability ([2]; first compound 0.04 µM) of 1.14 and a relative viability ([2]; first compound 0.4 µM) of 1.04. For the same cell line, the relative viability ([2]; first compound 1.265 µM) was 1.21, the relative viability ([2]; first compound 4 µM) was 1.15 and the relative viability ([3]; first compound 0.04 µM) was 0.994. It also gave a relative viability ([3]; first compound 0.4 µM) of 1.13, a relative viability ([3]; first compound 1.265 µM) of 1.27 and a relative viability ([3]; first compound 4 µM) of 1.05. It also gave a relative viability ([4]; first compound 0.04 µM) of 1.02, a relative viability ([4]; first compound 0.4 µM) of 0.825 and a relative viability ([4]; first compound 1.265 µM) of 0.874. The relative viability ([4]; first compound 4 µM) was 0.822, the relative viability ([5]; first compound 0.04 µM) was 1.09 and the relative viability ([5]; first compound 0.4 µM) was 0.961. For the same cell line, the relative viability ([5]; first compound 1.265 µM) was 1.05 and the relative viability ([5]; first compound 4 µM) was 1.01.
NCI-H596 gave a relative viability ([1]; first compound 0.04 µM) of 0.701, a relative viability ([1]; first compound 0.4 µM) of 0.63 and a relative viability ([1]; first compound 1.265 µM) of 0.501. It also gave a relative viability ([1]; first compound 4 µM) of 0.556, a relative viability ([2]; first compound 0.04 µM) of 0.669 and a relative viability ([2]; first compound 0.4 µM) of 0.728. It also gave a relative viability ([2]; first compound 1.265 µM) of 0.721, a relative viability ([2]; first compound 4 µM) of 0.753 and a relative viability ([3]; first compound 0.04 µM) of 0.543. It also gave a relative viability ([3]; first compound 0.4 µM) of 0.411, a relative viability ([3]; first compound 1.265 µM) of 0.452 and a relative viability ([3]; first compound 4 µM) of 0.48. The relative viability ([4]; first compound 0.04 µM) was 1.1, the relative viability ([4]; first compound 0.4 µM) was 0.96 and the relative viability ([4]; first compound 1.265 µM) was 1.01. The relative viability ([4]; first compound 4 µM) was 0.984, the relative viability ([5]; first compound 0.04 µM) was 0.501 and the relative viability ([5]; first compound 0.4 µM) was 0.487. The relative viability ([5]; first compound 1.265 µM) was 0.553 and the relative viability ([5]; first compound 4 µM) was 0.37.
With LCLC-97TM1 the relative viability ([1]; first compound 0.04 µM) was 1.03, the relative viability ([1]; first compound 0.4 µM) was 0.644 and the relative viability ([1]; first compound 1.265 µM) was 0.619. For the same cell line, the relative viability ([1]; first compound 4 µM) was 0.749, the relative viability ([2]; first compound 0.04 µM) was 0.437 and the relative viability ([2]; first compound 0.4 µM) was 0.374. It also gave a relative viability ([2]; first compound 1.265 µM) of 0.371, a relative viability ([2]; first compound 4 µM) of 0.385 and a relative viability ([3]; first compound 0.04 µM) of 0.166. It also gave a relative viability ([3]; first compound 0.4 µM) of 0.17, a relative viability ([3]; first compound 1.265 µM) of 0.13 and a relative viability ([3]; first compound 4 µM) of 0.201. For the same cell line, the relative viability ([4]; first compound 0.04 µM) was 0.228, the relative viability ([4]; first compound 0.4 µM) was 0.2 and the relative viability ([4]; first compound 1.265 µM) was 0.236. The relative viability ([4]; first compound 4 µM) was 0.216, the relative viability ([5]; first compound 0.04 µM) was 0.242 and the relative viability ([5]; first compound 1.265 µM) was 0.252. For the same cell line, the relative viability ([5]; first compound 4 µM) was 0.295.
NCI-H1993 gave a relative viability ([1]; first compound 0.04 µM) of 0.907, a relative viability ([1]; first compound 0.4 µM) of 0.736 and a relative viability ([1]; first compound 1.265 µM) of 1.21. It also gave a relative viability ([1]; first compound 4 µM) of 0.764, a relative viability ([2]; first compound 0.04 µM) of 1.11 and a relative viability ([2]; first compound 0.4 µM) of 1.05. It also gave a relative viability ([2]; first compound 1.265 µM) of 1.13, a relative viability ([2]; first compound 4 µM) of 0.966 and a relative viability ([3]; first compound 0.04 µM) of 0.63. For the same cell line, the relative viability ([3]; first compound 0.4 µM) was 0.577, the relative viability ([3]; first compound 1.265 µM) was 0.619 and the relative viability ([3]; first compound 4 µM) was 0.68. For the same cell line, the relative viability ([4]; first compound 0.04 µM) was 0.572, the relative viability ([4]; first compound 0.4 µM) was 0.588 and the relative viability ([4]; first compound 1.265 µM) was 0.577. For the same cell line, the relative viability ([4]; first compound 4 µM) was 0.559, the relative viability ([5]; first compound 0.04 µM) was 0.719 and the relative viability ([5]; first compound 0.4 µM) was 0.72. It also gave a relative viability ([5]; first compound 1.265 µM) of 0.711 and a relative viability ([5]; first compound 4 µM) of 0.677.
Work on HARA yielded a relative viability ([1]; first compound 0.04 µM) of 0.608, a relative viability ([1]; first compound 0.4 µM) of 0.557 and a relative viability ([1]; first compound 1.265 µM) of 0.681. For the same cell line, the relative viability ([1]; first compound 4 µM) was 0.395, the relative viability ([2]; first compound 0.04 µM) was 0.762 and the relative viability ([2]; first compound 1.265 µM) was 0.762. For the same cell line, the relative viability ([2]; first compound 4 µM) was 0.947, the relative viability ([3]; first compound 0.04 µM) was 0.289 and the relative viability ([3]; first compound 1.265 µM) was 0.268. It also gave a relative viability ([3]; first compound 4 µM) of 0.254, a relative viability ([4]; first compound 0.04 µM) of 0.621 and a relative viability ([4]; first compound 1.265 µM) of 0.561. The relative viability ([4]; first compound 4 µM) was 0.468, the relative viability ([5]; first compound 0.04 µM) was 0.941 and the relative viability ([5]; first compound 0.4 µM) was 0.824. The relative viability ([5]; first compound 1.265 µM) was 0.853 and the relative viability ([5]; first compound 4 µM) was 0.845.
Cell Line NCI-H460 has a relative viability ([1]; first compound 0.04 µM) of 0.675, a relative viability ([1]; first compound 0.4 µM) of 0.597 and a relative viability ([1]; first compound 1.265 µM) of 0.779. The relative viability ([1]; first compound 4 µM) was 0.624, the relative viability ([2]; first compound 0.04 µM) was 0.337 and the relative viability ([2]; first compound 0.4 µM) was 0.427. It also gave a relative viability ([2]; first compound 1.265 µM) of 0.458, a relative viability ([2]; first compound 4 µM) of 0.394 and a relative viability ([3]; first compound 0.04 µM) of 0.0624. For the same cell line, the relative viability ([3]; first compound 0.4 µM) was 0.0591, the relative viability ([3]; first compound 1.265 µM) was 0.0649 and the relative viability ([3]; first compound 4 µM) was 0.0648. For the same cell line, the relative viability ([4]; first compound 0.04 µM) was 0.629, the relative viability ([4]; first compound 0.4 µM) was 0.45 and the relative viability ([4]; first compound 1.265 µM) was 0.463. It also gave a relative viability ([4]; first compound 4 µM) of 0.442, a relative viability ([5]; first compound 0.04 µM) of 0.643 and a relative viability ([5]; first compound 0.4 µM) of 0.465. For the same cell line, the relative viability ([5]; first compound 1.265 µM) was 0.47 and the relative viability ([5]; first compound 4 µM) was 0.401.

From the supplement of paper PMC10307832
